Data on four compounds can be found in patent US10091998B2, “Tetrazolinone compound and use thereof” (SUMITOMO CHEMICAL COMPANY, LIMITED, priority 2013, dated 2018).

In general, mortality refers to the share of the test organisms that died. A high value points to a strong lethal effect.

The subject of the assay is second-instar larvae of diamondback moth (Plutella xylostella). The assay can be described thus: Test Example 11: diamondback moth mortality on treated cabbage. It is filed as in vivo. To be noted: 120 h, 500 ppm spray on cabbage, 20 mL per cup, 5 days at 25° C. How it is done:
As a test chemical solution used in the present test example, a water dilution (test chemical solution) was prepared so as to contain a predetermined concentration (500 ppm) of any one compound of the present compounds 1, 15, 17, and 55.
The test chemical solution was sprayed over cabbage in three-leaf stage sowed and grown in a polyethylene at a rate of 20 mL per cup. After drying the chemical solution, the stem and leaf portions were cut and disposed in a 50 mL cup. Five (5) heads of second-instar larvae of diamondback moth (Plutella xylostella) were released and then a lid was put on the cup. After storage at 25° C. for 5 days, the number of the dead insects was counted and mortality was calculated by the following equation. Mortality (%)=(number of dead insects/number of tested insects)×100

Each structure is given as a SMILES string. Some results are limits rather than exact numbers.

The compound `Cc1cccc(-n2nnn(C)c2=O)c1OCc1ccccc1` [Present Compound 1, 1-(2-phenylmethoxy-3-methylphenyl)-4-methyl-1,4-dihydrotetrazol-5-one] returned a mortality at 500 ppm of no less than 80%.
With `Cc1cc(-c2ccccc2C)ccc1COc1c(C)cccc1-n1nnn(C)c1=O` [Present Compound 17] the figure was no less than 80%; with `Cc1ccc(-c2ccc(COc3c(C)cccc3-n3nnn(C)c3=O)c(C)c2)cc1` [Present Compound 15], no less than 80%; with `COc1ccccc1-c1csc(COc2c(C)cccc2-n2nnn(C)c2=O)n1` [Present Compound 55, 2-({[1-(4,5-dihydro-4-methyl-5-oxo-1H-tetrazol-1-yl)-3-methylphenyl-2-yl]oxy}methyl)-4-(2-methoxyphenyl)thiazole], no less than 80%.
